Test results published in patent publication US9206412B2, “Thioxothiazolidine inhibitors” (Colorado State University Research Foundation, priority 2012, dated 2015).
“And” between values parts separate entries of the source, which are not always exact repeats. Identical values can stand only once. “Also recorded” adds a separate entry of the source. Like-named read-outs stand apart in the source and are kept apart here.

Assays:
[1] = system: dengue type 2 virus subgenomic replicon (BHK-pD2hRucPac); assay: Antiviral (replicon) assay, Renilla luciferase; type: cell-based
[2] = Cell viability (CellTiter-Glo) in replicon assay; conditions: hamster, BHK-pD2hRucPac cells (dengue replicon cells)
[3] = biological target: T1, dengue virus capping enzyme (Dengue virus type 2, UniProt P29990); assay: biochemical; type: binding, dengue virus type 2 (strain 16681)
T1 sequence (P29990 2492-2758): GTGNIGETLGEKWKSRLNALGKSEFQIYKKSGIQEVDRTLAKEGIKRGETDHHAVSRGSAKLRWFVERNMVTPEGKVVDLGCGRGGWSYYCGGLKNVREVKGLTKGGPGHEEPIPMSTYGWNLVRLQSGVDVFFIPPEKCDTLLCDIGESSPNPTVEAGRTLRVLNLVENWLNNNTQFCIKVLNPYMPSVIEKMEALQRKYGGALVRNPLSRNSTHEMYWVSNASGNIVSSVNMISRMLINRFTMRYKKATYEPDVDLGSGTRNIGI

[4] = biological target: yellow fever virus capping enzyme (Yellow fever virus, UniProt P03314); assay: biochemical; type: binding, yellow fever virus (strain 17D)
dengue capping enzyme = dengue capping enzyme (Dengue virus type 2, UniProt P29990); assay: Guanylation inhibition assay
WNV = assay: Ki determination, fluorescence polarization (FP_WNV_KI); conditions: read-out: FP_WNV_KI_AVG_WNV_M; Table 2-1
BHK-pD2hRucPac cells = assay: Cell viability (CellTiter-Glo) in replicon assay; conditions: read-out: Replicon Assay_CC50_M; Table 2-1
yellow fever (17D) virus = type: cell-based
Sindbis virus pBG451 = type: cell-based
Kunjin virus NS5 protein = assay: Western blot analysis of NS5 in Kunjin infected BHK cells; conditions: MOI=0.01, 48 hours post-infection, increasing concentrations
[5] = system: West Nile virus (Kunjin subtype); type: cell-based
[6] = system: West Nile virus (Kunjin) RNA; assay: qRT-PCR of Kunjin viral RNA in culture media; type: cell-based
Description: Quantitative Reverse Transcriptase Real-Time PCR Analysis. West Nile virus (Kunjin) RNA was extracted from cell culture media with Trizol LS (Invitrogen, La Jolla, Calif.) following the manufacturer's protocol. Quantitative reverse transcriptase real-time PCR reactions for Kunjin genomic RNA were performed using the Brilliant III Ultra-Fast SYBR QRT-PCR Master Mix (Catalog # 600886, Agilent, Santa Clara, Calif.) with primers Fwd 6170 (5′-[…] (SEQ ID NO: 1)) and Rev 6278 (5′-[…] (SEQ ID NO: 2)). To set up qRT-PCR reactions, 2 μL of extracted RNA was added to 5 μL of 2× master mix, 1 μL of 5 μM Fwd 6170 primer, 1 μL of 5 μM Rev 6278 primer, and 1 μL of 100 mM DTT in 96-well PCR plates with optically clear sealing films. No RNA and no primer controls were included in each experiment. qRT-PCR reactions were performed on a BioRad CFX384 real-time PCR thermal cycler using the following cycling conditions: Reverse transcriptase step=50° C., 10 minutes; denature step=95° C., 3 minutes; PCR (40 cycles)=95° C., 5 seconds/60° C., 10 seconds. Melt curves were performed at the end of each run, to verify the specificity of the detected SYBR signal. Cq values were determined by setting the threshold to 40 for all experiments. Standard curves were generated from diluted media containing Kunjin virus of known titer (PFU/mL), and the Cq values from experimental samples were compared to the standard curve to establish PFU equivalent/mL values for each sample (y=−3.475x+27.577, y=Cq , X=Log10(PFU)). The limit of detection in these experiments was determined to be 10 PFU equivalents/mL. All experiments were performed three times, and the average and standard error of the mean reported.

[7] = Dengue virus, 72 h, read-out: Replicon EC50, Table 3, 72 hours
[8] = Dengue virus, read-out: Replicon Assay_EC50_M, Table 2-1
[9] = Replicon Assay_CC50_M, Table 2-1
[10] = Replicon CC50, Table 3, 72 hours

Chain of yellow fever virus capping enzyme (P03314 2507-2774 limits assumed): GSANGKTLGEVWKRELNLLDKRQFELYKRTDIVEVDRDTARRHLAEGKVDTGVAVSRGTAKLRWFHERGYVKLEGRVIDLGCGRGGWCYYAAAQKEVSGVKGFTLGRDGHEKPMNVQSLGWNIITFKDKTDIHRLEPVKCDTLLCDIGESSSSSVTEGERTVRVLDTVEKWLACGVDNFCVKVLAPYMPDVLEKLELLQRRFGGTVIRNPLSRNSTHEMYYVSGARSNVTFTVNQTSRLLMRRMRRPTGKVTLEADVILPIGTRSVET

SMILES | EC50 [1, 7] [µM] | EC50 [1, 8] [µM] | CC50 at 72 h [2, 9] [µM] | CC50 at 72 h [2, 10] [µM] | Ki ([3]; FP_DEN_Ki_AVG_DEN_M) [µM] | Ki ([3]; Ki (GTP displacement)) | Ki ([4]; FP_YF_KI_AVG_YF_M) [µM] | IC50 (dengue capping enzyme) [µM] | other results
O=C(O)CCN1C(=O)/C(=C/c2ccc(Cl)cc2Cl)SC1=S [BG-330] | 8.7 | 9 | 11 | 12 | 10 | 9.8 µM | 9 | 2.6 | 
CC(C)(C)c1ccc(/C=C2\SC(=S)N(CCC(=O)O)C2=O)cc1 [BG295] |  |  |  |  |  |  |  |  | EC50 ([1]; Table 2-1, read-out: Replicon Assay_EC50_M): 30 µM; Ki (WNV): 8 µM; CC50 (BHK-pD2hRucPac cells): 114 µM; Ki ([3]; read-out: FP_DEN_Ki_AVG_DEN_M): 2 µM; Ki ([4]; read-out: FP_YF_KI_AVG_YF_M): 2 µM
CC(C)(C)c1ccc(/C=C2/SC(=S)N(CCC(=O)O)C2=O)cc1 [BG-323, (E)-3-(5-(4-tert-butylbenzylidene)-4-oxo-2-thioxo-1,3-thiazolidin-3-yl)propanoic acid] | 30.8 | 30.8 | 184 | 184 | 7.5 | ~7 µM and 7.5 µM and ~10 µM | 9.5 |  | EC50 ([1]; Dengue virus, 72 h, read-out: Replicon EC50, 72 hours): 30.8 µM; EC50 ([1]; read-out: Replicon EC50, 72 hours): ~30 µM; reduction of virus titers (yellow fever (17D) virus): slightly less robust effect; CC50 at 72 h ([2]; Replicon CC50, text): 184 µM; Renilla signal of Sindbis virus (Sindbis virus pBG451): Only a very minor reduction in Renilla signal; also recorded: insensitive; viral NS5 protein level (Kunjin virus NS5 protein): significant decrease in NS5; Ki ([4]; Ki (GTP binding)): ~7 µM; cell viability (BHK cells): minor reduction in cell viability; reduction of virus titers [5]: ~3 logs; viral RNA in media with replacement of compound every 24 hours ([6]; 100 μM, fresh media every 24 hours for 72 hours): significantly reduced viral RNA in media over time; viral RNA detectable in the media ([6]; BHK, Kunjin MOI=0.01, 50 μM or 100 μM, 72 hours post-infection): significantly reduced; activity after pre-incubation in media at 37° C. ([6]; pre-incubated 3, 2, 1, or 0 days, 50 μM, Kunjin RNA at 72 hours): becomes less active over longer incubation periods
O=C(O)CCN1C(=O)/C(=C/c2cccc(Cl)c2Cl)SC1=S [BG-324] | 8.5 | 9 | 12 | 12 | 10 | 9.9 µM | 16 | 155 | 
